Measurements reported in ChEMBL document CHEMBL1154658, “Novel macrocyclic inhibitors of hepatitis C NS3/4A protease featuring a 2-amino-1,3-thiazole as a P4 carbamate replacement” (J Med Chem, 2009).
One block for each compound: values may come before it.

What was measured:
[1] = Drug level in Sprague-Dawley rat liver at 5 mg/kg, po after 4 hrs; assay type: ADME, organism-based; design: dose 5 mg/kg, route oral; settings: read-out: Drug uptake
Hepatitis C virus [2] = assay: Antiviral activity against HCV 1b infected in human Huh7 cells by bicistronic replicon RNA assay in presence of 50% normal human serum; assay type: functional, organism-based, Hepacivirus hominis; settings: genotype 1b, Huh-7
[3] = AUC (0 to 4 hrs) in Sprague-Dawley rat at 5 mg/kg, po; assay type: ADME, organism-based, Plasma; design: time < 4 hr, dose 5 mg/kg, route oral; settings: Sprague-Dawley, plasma
Hepatitis C virus [4] = assay: Inhibition of HCV 1b NS3/4A protease by time-resolved fluorescence assay; design: species or system Hepatitis C virus subtype 1b
Hepatitis C virus [5] = assay: Antiviral activity against HCV 1b infected in human Huh7 cells by bicistronic replicon RNA assay in presence of 10% fetal bovine serum; assay type: functional, organism-based, Hepacivirus hominis; settings: genotype 1b, Huh-7
[6] = Cmax in Beagle dog at 5 mg/kg, po; assay type: ADME, organism-based, Canis lupus familiaris; design: dose 5 mg/kg, route oral; settings: in vivo
[7] = Oral bioavailability in Sprague-Dawley rat at 5 mg/kg; assay type: ADME, organism-based; settings: in vivo
[8] = Cmax in Sprague-Dawley rat at 30 mg/kg, po; assay type: ADME, organism-based; design: dose 30 mg/kg, route oral; settings: in vivo
[9] = AUC in Sprague-Dawley rat at 30 mg/kg, po; assay type: ADME, organism-based; design: dose 30 mg/kg, route oral; settings: plasma
[10] = AUC in Sprague-Dawley rat at 20 mg/kg, po; assay type: ADME, organism-based; design: dose 20 mg/kg, route oral; settings: plasma
[11] = Cmax in Sprague-Dawley rat at 5 mg/kg, po; assay type: ADME, organism-based; design: dose 5 mg/kg, route oral; settings: in vivo
[12] = Plasma clearance in Beagle dog at 2 mg/kg, iv; assay type: ADME, organism-based, Canis lupus familiaris; design: dose 2 mg/kg, route intravenous
[13] = Cmax in Sprague-Dawley rat at 10 mg/kg, po; assay type: ADME, organism-based; design: dose 10 mg/kg, route oral; settings: in vivo
[14] = AUC in Sprague-Dawley rat at 5 mg/kg, po; assay type: ADME, organism-based; design: dose 5 mg/kg, route oral; settings: plasma
[15] = Drug level in Sprague-Dawley rat liver at 30 mg/kg, po after 24 hrs; assay type: ADME, organism-based; design: dose 30 mg/kg, route oral; settings: read-out: Drug uptake
[16] = Cmax in Beagle dog at 2 mg/kg, iv; assay type: ADME, organism-based, Canis lupus familiaris; design: dose 2 mg/kg, route intravenous; settings: in vivo
[17] = Drug level in Sprague-Dawley rat liver at 20 mg/kg, po after 24 hrs; assay type: ADME, organism-based; design: dose 20 mg/kg, route oral; settings: read-out: Drug uptake
[18] = Cmax in Beagle dog at 10 mg/kg, po; assay type: ADME, organism-based, Canis lupus familiaris; design: dose 10 mg/kg, route oral; settings: in vivo
[19] = Drug level in Sprague-Dawley rat liver at 5 mg/kg, po after 24 hrs; assay type: ADME, organism-based; design: dose 5 mg/kg, route oral; settings: read-out: Drug uptake
[20] = AUC in Beagle dog at 2 mg/kg, iv; assay type: ADME, organism-based, Canis lupus familiaris; design: dose 2 mg/kg, route intravenous; settings: plasma
[21] = Bioavailability in Beagle dog at 2 mg/kg, iv; assay type: ADME, organism-based, Canis lupus familiaris; settings: in vivo
[22] = AUC in Beagle dog at 10 mg/kg, po; assay type: ADME, organism-based, Canis lupus familiaris; design: dose 10 mg/kg, route oral; settings: plasma
[23] = AUC in Beagle dog at 5 mg/kg, po; assay type: ADME, organism-based, Canis lupus familiaris; design: dose 5 mg/kg, route oral; settings: plasma
[24] = AUC in Sprague-Dawley rat at 10 mg/kg, po; assay type: ADME, organism-based; design: dose 10 mg/kg, route oral; settings: plasma
[25] = Cmax in Sprague-Dawley rat at 20 mg/kg, po; assay type: ADME, organism-based; design: dose 20 mg/kg, route oral; settings: in vivo
[26] = Oral bioavailability in Sprague-Dawley rat at 4 mg/kg; assay type: ADME, organism-based; settings: in vivo
[27] = (§1) AUC (0 to 4 hrs) in Sprague-Dawley rat at 4 mg/kg, po; assay type: ADME, organism-based, Plasma; design: time < 4 hr, dose 4 mg/kg, route oral; settings: Sprague-Dawley, plasma
[28] = (§2) Plasma clearance in Sprague-Dawley rat at 4 mg/kg, po; assay type: ADME, organism-based; design: dose 4 mg/kg, route oral; settings: Sprague-Dawley, plasma
[29] = Drug level in Sprague-Dawley rat liver at 4 mg/kg, po after 4 hrs; assay type: ADME, organism-based; design: dose 4 mg/kg, route oral; settings: read-out: Drug uptake
Rattus norvegicus [30] = assay: as §1; assay type: ADME, organism-based, Plasma; design: time < 4 hr, dose 4 mg/kg, route oral; settings: in vivo, 4 h
Rattus norvegicus [31] = assay: as §2; assay type: ADME, organism-based; design: dose 4 mg/kg, route oral; settings: in vivo
[32] = Inhibition of HCV 2a NS3/4A protease; design: species or system Hepatitis C virus subtype 2a
[33] = AUC in Sprague-Dawley rat at 4 mg/kg, iv; assay type: ADME, organism-based; design: dose 4 mg/kg, route intravenous; settings: plasma
[34] = Plasma clearance in Sprague-Dawley rat at 4 mg/kg, iv; assay type: ADME, organism-based; design: dose 4 mg/kg, route intravenous
[35] = Bioavailability in Sprague-Dawley rat at 4 mg/kg, iv; assay type: ADME, organism-based; settings: in vivo
[36] = Inhibition of HCV 3a NS3/4A protease; design: species or system Hepatitis C virus subtype 3a
[37] = Inhibition of HCV NS3/4A protease; design: species or system Hepacivirus hominis
[38] = Cmax in Sprague-Dawley rat at 4 mg/kg, iv; assay type: ADME, organism-based; design: dose 4 mg/kg, route intravenous; settings: in vivo
[39] = Selectivity for HCV NS3/4A protease over chymotrypsin
[40] = Selectivity for HCV NS3/4A protease over trypsin

Compound: C=C[C@@H]1C[C@]1(NC(=O)[C@@H]1C[C@@H]2CN1C(=O)[C@H](C(C)C)Nc1nc(cs1)CCCCc1ccc3nc(-c4ccccc4)cc(c3c1)O2)C(=O)NS(=O)(=O)C1CC1.O=C(O)C(F)(F)F
concentration at 4 h [1]: < 10 nM
EC50 (Hepatitis C virus [2]): 390 nM
AUC(0-t) at 4 h [3]: < 0.01 µM·h
Ki (Hepatitis C virus [4]): 0.5 nM
EC50 (Hepatitis C virus [5]): 40 nM

Compound: C=C[C@@H]1C[C@]1(NC(=O)[C@@H]1C[C@@H]2CN1C(=O)[C@H](C(C)C)Nc1nc(cs1)CCCCCc1ccc3ccnc(c3c1)O2)C(=O)NS(=O)(=O)C1CC1
EC50 (Hepatitis C virus [2]): 830 nM
Ki (Hepatitis C virus [4]): 1.5 nM
EC50 (Hepatitis C virus [5]): 120 nM

Compound: C=C[C@@H]1C[C@]1(NC(=O)[C@@H]1C[C@@H]2CN1C(=O)[C@H]([C@@H](C)CC)Nc1nc(cs1)CCC/C=C/c1cccc3c1CN(C3)C(=O)O2)C(=O)[N-]S(=O)(=O)C1CC1.[K+]
Cmax [6]: 1160 nM
bioavailability [7]: 26%
Cmax [8]: 8000 nM
AUC [9]: 21 µM·h
AUC [10]: 13.3 µM·h
Cmax [11]: 500 nM
clearance [12]: 38 mL/min/kg
Cmax [13]: 1400 nM
AUC [14]: 1.7 µM·h
concentration at 24 h [15]: 60 nM
Cmax [16]: 60 nM
concentration at 24 h [17]: 40 nM
Cmax [18]: 4000 nM
concentration at 24 h [19]: 10 nM
AUC [20]: 0.2 µM·h
bioavailability [21]: 17%
AUC [22]: 10 µM·h
AUC [23]: 0.5 µM·h
AUC [24]: 2.5 µM·h
Cmax [25]: 5900 nM

Compound: C=C[C@@H]1C[C@]1(NC(=O)[C@@H]1C[C@@H]2CN1C(=O)[C@H]([C@@H](C)CC)Nc1nc(cs1)CCC/C=C/c1cccc3c1CN(C3)C(=O)O2)C(=O)NS(=O)(=O)C1CC1
fold change (FC) [39]: > 15000
fold change (FC) [40]: > 15000

Further compounds by falling EC50 (Hepatitis C virus [5]), results first:

concentration at 4 h [1]: 2400 nM
AUC(0-t) at 4 h [3]: 0.9 µM·h
EC50 (Hepatitis C virus [5]): 30 nM
Compound: C=C[C@@H]1C[C@]1(NC(=O)[C@@H]1C[C@@H]2CN1C(=O)[C@H](C(C)C)Nc1nc(cs1)CC/C=C/c1ccc3ccnc(c3c1)O2)C(=O)NS(=O)(=O)C1CC1.O=C(O)C(F)(F)F
EC50 (Hepatitis C virus [2]): 730 nM
Ki (Hepatitis C virus [4]): 5 nM

bioavailability [26]: < 0.01%
AUC(0-t) at 4 h [27]: < 0.01 µM·h
CL/F [28]: 56 mL/min/kg
concentration at 4 h [29]: 570 nM
EC50 (Hepatitis C virus [5]): 12 nM
Compound: CCC1C[C@]1(NC(=O)[C@@H]1C[C@@H]2CN1C(=O)[C@H](C1CCCCC1)Nc1nc(cs1)CCC/C=C/c1cccc3c1CN(C3)C(=O)O2)C(=O)NS(=O)(=O)C1CC1.O=C(O)C(F)(F)F (single isomer, unassigned)
EC50 (Hepatitis C virus [2]): 50 nM
Ki (Hepatitis C virus [4]): 0.16 nM

concentration at 4 h [1]: 13400 nM
AUC(0-t) at 4 h [3]: 0.27 µM·h
EC50 (Hepatitis C virus [5]): 8.7 nM
Compound: C=C[C@@H]1C[C@]1(NC(=O)[C@@H]1C[C@@H]2CN1C(=O)[C@H](C(C)(C)C)NC(=O)OCCCCCc1ccc3ccnc(c3c1)O2)C(=O)NS(=O)(=O)C1CC1
EC50 (Hepatitis C virus [2]): 46 nM
Ki (Hepatitis C virus [4]): 0.2 nM

bioavailability [26]: 6%
AUC (Rattus norvegicus [30]): 0.06 µM·h
CL (Rattus norvegicus [31]): 85 mL/min/kg
concentration at 4 h [29]: 130 nM
EC50 (Hepatitis C virus [5]): 3 nM
Compound: C=C[C@@H]1C[C@]1(NC(=O)[C@@H]1C[C@@H]2CN1C(=O)[C@H](C(C)(C)C)Nc1nc(cs1)CCC/C=C/c1cccc3c1CN(C3)C(=O)O2)C(=O)NS(=O)(=O)C1CC1.O=C(O)C(F)(F)F
EC50 (Hepatitis C virus [2]): 23 nM
Ki (Hepatitis C virus [4]): 0.16 nM

Ki [32]: 0.4 nM
AUC [33]: 0.7 µM·h
clearance [34]: 17 mL/min/kg
bioavailability [26]: 13%
bioavailability [35]: 13%
AUC(0-t) at 4 h [27]: 0.7 µM·h
CL/F [28]: 17 mL/min/kg
concentration at 4 h [29]: 350 nM
Ki [36]: 45 nM
Ki [37]: 4 nM
EC50 (Hepatitis C virus [5]): 2 nM
EC90 (Hepatitis C virus [5]): 3 nM
Cmax [38]: 400 nM
Compound: C=C[C@@H]1C[C@]1(NC(=O)[C@@H]1C[C@@H]2CN1C(=O)[C@H]([C@@H](C)CC)Nc1nc(cs1)CCC/C=C/c1cccc3c1CN(C3)C(=O)O2)C(=O)NS(=O)(=O)C1CC1.O=C(O)C(F)(F)F
EC50 (Hepatitis C virus [2]): 18 nM
EC90 (Hepatitis C virus [2]): 40 nM
Ki (Hepatitis C virus [4]): 0.04 nM
